Assay results published in article PMC5963671, “Hes1 inhibitor isolated by target protein oriented natural products isolation (TPO-NAPI) of differentiation activators of neural stem cells† †Electronic supplementary information (ESI) available. See DOI: 10.1039/c5sc03540f” (Chemical Science, 2015).

Assays:
[1] = target: T1, Hes1 (Rattus norvegicus, UniProt Q04666); assay: biochemical; design: Fluorescence plate assay of Hes1 dimer formation, immobilized Hes1 with Cy3-labeled Hes1; settings: Hes1 dimer formation
T1 construct: Rat-Hes1 (residues 3-281)
T1 sequence (Q04666 3-281): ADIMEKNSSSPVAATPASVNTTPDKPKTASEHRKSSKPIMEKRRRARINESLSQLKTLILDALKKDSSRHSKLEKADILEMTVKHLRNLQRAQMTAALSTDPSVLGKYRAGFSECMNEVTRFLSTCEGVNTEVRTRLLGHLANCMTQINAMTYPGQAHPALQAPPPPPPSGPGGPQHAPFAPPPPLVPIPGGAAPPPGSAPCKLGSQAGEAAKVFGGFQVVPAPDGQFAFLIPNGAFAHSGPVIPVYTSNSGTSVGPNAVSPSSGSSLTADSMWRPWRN
Method: Nunc Immobilizer™ Amino 96 well plate, white (Nalge Nunc Int.) was used for immobilizing of Hes1. The wells were incubated with 100 μL of Hes1 (10 μg mL^–1 in PBS) for 2 h at 4 °C. After the removal of protein solution, to block remaining activated units on the well, the wells were incubated for 2 h at 4 °C with 100 μL of 10 mM ethanolamine (in 100 mM Na2CO3 buffer, pH 9.6), then washed twice with 200 μL of PBST (PBS containing 0.05% Tween 20). The Hes1 bound microplate wells were incubated with 50 μL of Cy3-labeled-Hes1 in NET-N buffer (ca. 7 mg L^–1, dye/protein = 0.65) for 24 h at 4 °C. After removal of protein solution, each well was washed twice with 200 μL of PBST, then each compound solution (NET-N buffer, 50 μL) was added. After incubation for 1 h at RT in the dark, each well was washed twice with 200 μL of PBST, then dried under reduced pressure 1 h in the dark. The fluorescence intensity was measured in a microplate reader (Fluoroskan Ascent, Thermo). The Cy3 dye was excited at 530 nm and emitted at 590 nm. Usually, the assays were carried out in three individual wells, and the mean value and SD were calculated. Fig. 4 Hes1 dimer formation inhibitory activity. (a) Schematic representation of the assay for inhibitors of Hes1 dimer formation. Rat-Hes1 (residues 3-281) was exposed to Cy3-labeled Hes1. Hes1 dimer was detected through its fluorescence intensity.[40] The assay was performed after the equilibrium of exchange between immobilized Hes1 with Cy3-Hes1 and unlabeled Hes1 which was estimated to be included as unlabeled Hes1 dimers at the immobilizing stage. (b) Hes1 dimer formation inhibition by the isolated compounds 2–4. […] The complex was detected with horseradish peroxidase (HRP) conjugated anti-GST antibody. […] The ratio of dye/protein was calculated from the absorption for Cy3 (ε 150000 M-1 cm-1 at 552 nm). […] Fluorescence plate assay for inhibitors of Hes1 dimer formation Nunc ImmobilizerTM Amino 96 well plate, white (Nalge Nunc Int.) was used for immobilizing of Hes1. […] The fluorescence intensity was measured in a microplate reader (Fluoroskan Ascent, Thermo). […]

[2] = target: T1, Hes1; assay: Hes1 dimer fluorescence plate assay (Cy3-Hes1); binding also shown by GST-Hes1 beads-HPLC
[3] = target: T1, Hes1; assay: Hes1 dimer fluorescence plate assay (Cy3-Hes1); binding also shown by GST-Hes1 beads-HPLC with truncated proteins
[4] = target: the molecule itself; assay: fluorescence plate assay (Hes1 dimer plate assay); Hes1 (10 μg/mL in PBS) immobilised on a Nunc Immobilizer Amino 96 well plate; Cy3-labeled Hes1 (ca. 7 mg/L) in NET-N buffer for 24 h at 4 °C; washed with PBST; fluorescence read at 530/590 nm

In the case of COc1cc(O[C@@H]2O[C@H](CO[C@@H]3OC[C@@H](O)[C@H](O)[C@H]3O)[C@@H](O)[C@H](O)[C@H]2O)c2c(=O)cc(-c3ccc(O)cc3)oc2c1 [compound 3, genkwanin 5-O-β-D-xylosyl-β-D-glucoside], the IC50 [1] is reported as greater than 64 µM.

COc1c(O)cc2oc3cc(O)c(CC=C(C)C)c(O)c3c(=O)c2c1CC=C(C)C [compound 5, α-Mangostine] showed an IC50 [1] greater than 64 µM.

Molecule COc1cc(O[C@@H]2O[C@H](CO[C@@H]3OC[C@@H](O)[C@H](O)[C@H]3O)[C@@H](O)[C@H](O)[C@H]2O)c2c(=O)cc(-c3ccc(OC)c(OC)c3)oc2c1 [compound 4, lethedioside A] has an IC50 [2] of 9.5 µM.

In the case of CCCC(=O)/C=C/C1=C(O)C(=O)c2cc(O)c(O)cc2C1=O [compound 1, lindbladione], the IC50 [1] is reported as 3.7 µM.

Work on COc1ccc(-c2cc(=O)c3c(O[C@@H]4O[C@H](CO[C@@H]5OC[C@@H](O)[C@H](O)[C@H]5O)[C@@H](O)[C@H](O)[C@H]4O)cc(OC)cc3o2)cc1 [compound 2, agalloside] yielded an IC50 [3] of 10.1 µM.

B1: Rat-Hes1 (residues 3-281) (natural protein, UniProt Q04666 3-281, looked up)
chain: ADIMEKNSSSPVAATPASVNTTPDKPKTASEHRKSSKPIMEKRRRARINESLSQLKTLILDALKKDSSRHSKLEKADILEMTVKHLRNLQRAQMTAALSTDPSVLGKYRAGFSECMNEVTRFLSTCEGVNTEVRTRLLGHLANCMTQINAMTYPGQAHPALQAPPPPPPSGPGGPQHAPFAPPPPLVPIPGGAAPPPGSAPCKLGSQAGEAAKVFGGFQVVPAPDGQFAFLIPNGAFAHSGPVIPVYTSNSGTSVGPNAVSPSSGSSLTADSMWRPWRN
modifications: Cy3 label on the copy added in solution (dye/protein = 0.65); the immobilised copy is unlabelled
notes: Hes1 (hairy and Enhancer of split 1), rat, residues 3-281; One copy was coupled to a Nunc Immobilizer Amino plate and the other was Cy3-labelled; also called Cy3-labeled Hes1; Cy3-Hes1
B1: binds [4].
